This is an account of results in PubChem BioAssay AID623936 (Southern Research Specialized Biocontainment Screening …, 2012).

The experiment concerns Vero 76 cells viability (cytotoxicity). Put plainly: Vero 76 cell cytotoxicity, dose response, cytotoxicity control, set 4 (AID 623936).

Broadly, the CC50 is the concentration at which the toxic effect on the cells reaches its halfway point.

As for `CN(C(=O)Cc1cccs1)c1nc2c(s1)CCCC2`, the CC50 was 18.5 µM.
